Laboratory results from US20040209954A1, “Compositions and methods for treating body malodor and fungal overgrowth in mammals” (priority 2003, published 2004).

Key:
Format in all cases: cell-based
[1] = tested on: A. Niger; assay: Minimum inhibitory concentration (MIC) versus A. niger
Procedure: In the instance of anti-fungal activity, detailed analysis has been carried out with a prototypical pathogen, Trichophytone mentagrophytes. The testing was conducted and illustrates the activity of the ACQA agents that are the subject of this invention. A Time Kill (D-Value) study (ASTM protocol #1891-97 Standard Guide For Determination Of A Survival Curve For Antimicrobial Agents Against Selected Microorganisms And Calculation Of A D-value And Concentration Coefficient) was carried out to screen for the antifungal activity of glycopyrrolate (3%). Testing was done to determine the speed at which the product kills a representative test organism, which was Trichophyton mentagrophytes, a representative dermatophyte-causing species. Determination of the minimum inhibitory concentration (MIC) versus A. Niger, a prototypical fungi was also initiated. The vehicle was 65% water/35% ethanol.
(§1) Additional scientific investigation was completed to verify the drug class aspects of this invention. […] Specifically, Mepenzolate bromide and Ipratropium bromide were evaluated utilizing standardized microbiological test methods for minimum inhibitory concentration (MIC) versus A. niger and C. albicans. MICs in the range of 1% were observable, confirming the antifungal activity of this class of compound. Insofar as ipratropium is used for intranasal purposes, it is apparent that the discovered property is not predicted by any known attribute of this class of drugs.

[2] = tested on: C. albicans; assay: Minimum inhibitory concentration (MIC) versus C. albicans
Procedure: as §1

[3] = tested on: Trichophyton mentagrophytes; assay: Time Kill (D-Value) study, antifungal; settings: glycopyrrolate 3%, vehicle 65% water/35% ethanol
Source text: (§2) In Vitro and in vivo tests can be used to show the efficacy of antimicrobial products. With appropriate controls and methods In Vitro tests are applicable to all products. The time-to-kill test is used to determine the killing kinetics and activity spectrum of antimicrobials. In this example, the test was, as is usual, performed in suspension. The principle is to place the product or agent in contact with an inoculum for a specified period of time. At the end of the contact time, the mixture is inactivated by dilution into neutralizing broth. Serial dilutions in appropriate broth are performed and the number of surviving bacterial observed on solid culture media. It is general practice to test agents so that the final concentration is representative of the use concentration of the product.
In the instance of anti-fungal activity, detailed analysis has been carried out with a prototypical pathogen, Trichophytone mentagrophytes. The testing was conducted and illustrates the activity of the ACQA agents that are the subject of this invention. A Time Kill (D-Value) study (ASTM protocol #1891-97 Standard Guide For Determination Of A Survival Curve For Antimicrobial Agents Against Selected Microorganisms And Calculation Of A D-value And Concentration Coefficient) was carried out to screen for the antifungal activity of glycopyrrolate (3%). […]

[4] = tested on: Corynebacterium vitaeruminis; assay: Time Kill (D-Value) study, antibacterial; settings: glycopyrrolate 3%, vehicle 65% water/35% ethanol
Source text: as §2
(§3) Similarly, In Vitro and In Vivo tests can be used to show the efficacy of antimicrobial products against bacterial species. Such a Time Kill (D-Value) study was conducted and illustrates the antibacterial activity of the ACQA agents that are the subject of this invention. In this case, the study was carried out to screen for the antibacterial activity of glycopyrrolate (3%) and triclosan (0.3%). Testing was done to determine the speed and MIC at which the product kills representative test organisms, which were Micrococcus luteous (syn ATTC 9341 changed to Kocuria rhizophila), Staphylococcos epidermidis and Corynebacterium vitaeruminis, representative odor-causing species. Once again, the vehicle was 65% water/35% ethanol.

[5] = tested on: Micrococcus luteous (syn ATTC 9341 changed to Kocuria rhizophila); assay: Time Kill (D-Value) study, antibacterial; settings: glycopyrrolate 3%, vehicle 65% water/35% ethanol
Source text: as §2, §3

[6] = tested on: Staphylococcos epidermidis; assay: Time Kill (D-Value) study, antibacterial; settings: glycopyrrolate 3%, vehicle 65% water/35% ethanol
Source text: as §2, §3

Row | MIC versus A. niger [1] [%] | SMILES | MIC versus C. albicans [2] [%] | time to antifungal effect over and above vehicle in D Value study [3] [min] | time to kill in D Value study [4] [min] | time to kill in D Value study [5] [min] | time to kill in D Value study [6] [min]
1 | ~1 | C[N+]1(C)CCCC(OC(=O)C(O)(c2ccccc2)c2ccccc2)C1 (stereo not drawn) [Mepenzolate bromide] | ~1 | – | – | – | –
2 | > 0.1 | C[N+]1(C)CCC(OC(=O)C(O)(c2ccccc2)C2CCCC2)C1 (stereo not drawn) [glycopyrrolate] | – | 24 | 4 | 4 | 4

Row | SMILES | MIC versus A. niger [1] [%] | MIC versus C. albicans [2] [%] | time to antifungal effect over and above vehicle in D Value study [3] [min] | time to kill in D Value study [4] [min] | time to kill in D Value study [5] [min] | time to kill in D Value study [6] [min]
3 | CC(C)[N+]1(C)[C@@H]2CC[C@H]1CC(OC(=O)C(CO)c1ccccc1)C2.[Br-] (stereo partly drawn) [Ipratropium bromide] | ~1 | ~1 | – | – | – | –
